Starred links: 1 amine or outer side, 2 acyl side, 3 side chain; linkers in the order of their positions; H or OH if unused. Positions of bridges follow the written chain, without caps; N, C: chain ends. Non-standard residues stand in square brackets, D forms with d. Residues, ends and D or L forms follow the SMILES beside them. ξ: configuration not given here. *: point of attachment. DOTA = O=C(O)CN1CCN(CC(=O)O)CCN(CC(=O)*)CCN(CC(=O)O)CC1; X22 = CC(C)CC(=O)Nc1cccc(C[C@H](N[*:1])C(=O)[*:2])c1; X19 = O=C([C@H](CS(=O)(=O)Cc1ccccc1)N[*:1])[*:2]; Phe(3-CF3) = N[C@@H](Cc1cccc(C(F)(F)F)c1)C(=O)O; Phe(4-CF3) = N[C@@H](Cc1ccc(C(F)(F)F)cc1)C(=O)O; ξTrp(7-Me) = Cc1cccc2c(CC(N)C(=O)O)c[nH]c12; ξTrp(1-Me) = Cn1cc(CC(N)C(=O)O)c2ccccc21; Phe(4-I) = N[C@@H](Cc1ccc(I)cc1)C(=O)O; mXylylene = c1cc(C[*:1])cc(C[*:2])c1; X2 = O=C(CN1CCC(N[*:1])CC1)[*:2]; Cha = N[C@@H](CC1CCCCC1)C(=O)O; Dap = NC[C@H](N)C(=O)O; Inp = O=C(O)C1CCNCC1

The target in assay [1] is T1, human carbonic anhydrase IX (hCAIX-Fc) (Homo sapiens, UniProt Q16790).
T1 construct: purchased SinoBliological (Sino Biological) 10107-H02H
The experiment in a line: Surface plasmon resonance assay with hCAIX-Fc. In kind it is binding. The settings on record: 25° C.; for t1/2 category (activity): SPR dissociation half-life, hCAIX-Fc; for Kd: SPR, hCAIX-Fc captured, read-out: pKD category (activity) (converted). (Surface plasmon resonance follows binding to a sensor surface in real time, without labels.)

Assay [2] concerns the target T2, CAIX-expressing human HT-29 colorectal cancer cells (Homo sapiens, UniProt Q16790).
T2 construct: CAIX-expressing human HT-29 colorectal cancer cells; host or cells: HT-29 human colorectal cancer cells
Put plainly: FACS binding assay (IC50 determination, competition with tracer 3BP-2776 or 3BP-4149). The settings on record: FACS binding assay, HT-29 cells, competition with tracer 3BP-2776 (10 nM, biotin-labeled), 4° C., 1 hour; read-out: pIC50 category (activity) (converted). The method in brief:
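HT-29 cells in FACS buffer (PBS, 1% FCS) at 500.000 cells/ml were exposed to compounds competing with a labelled tracer, with biotinylated compounds detected by 1 μg/mL APC-streptavidin for 30 min on ice. APC/Cy5 median fluorescence was read by flow cytometry and IC50 derived by 4PL fit.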
For orientation: Flow cytometry measures light scatter and fluorescence of single cells or particles in a stream.

For the compound `CC(C)C[C@@H]1NC(=O)[C@H](Cc2c[nH]c3ccccc23)NC(=O)[C@H](CS(=O)(=O)Cc2ccccc2)NC(=O)[C@H]2CCCN2C(=O)[C@H](CCC(=O)O)NC(=O)[C@@H](NC(=O)[C@H](Cc2ccc(O)cc2)NC(=O)[C@@H](NC(=O)CN2CCC(NC(=O)CN3CCN(CC(=O)O)CCN(CC(=O)O)CCN(CC(=O)O)CC3)CC2)C(C)C)CSCc2cccc(c2)CSC[C@@H](C(N)=O)NC(=O)[C@H](CO)NC(=O)[C@H](Cc2c[nH]c3ccccc23)NC(=O)[C@H]([C@@H](C)O)NC1=O` [3BP-4123] ({DOTA}-[X2]VYCE[dP][X19]WLTWSC-NH2; linker 4-13 via mXylylene), in assay [1], the “t1/2 category (activity)” value is “A (t1/2>15.0 minutes)” and the Kd is less than 10 nM. Also, the IC50 in assay [2] was less than 10 nM.

With `CC(C)C[C@@H]1NC(=O)[C@H](Cc2ccc(I)cc2)NC(=O)[C@H](CC(=O)O)NC(=O)[C@H]2CCCN2C(=O)[C@H](CCC(=O)O)NC(=O)[C@@H](NC(=O)[C@H](Cc2ccc(O)cc2)NC(=O)[C@@H](NC(=O)CN2CCC(NC(=O)CN3CCN(CC(=O)O)CCN(CC(=O)O)CCN(CC(=O)O)CC3)CC2)C(C)C)CSCc2cccc(c2)CSC[C@@H](C(N)=O)NC(=O)[C@H](CO)NC(=O)[C@H](Cc2c[nH]c3ccccc23)NC(=O)[C@H]([C@@H](C)O)NC1=O` [3BP-4134] ({DOTA}-[X2]VYCE[dP]D[Phe(4-I)]LTWSC-NH2; linker 4-13 via mXylylene), in assay [1], the “t1/2 category (activity)” value is “C (t1/2 between 2.1 and 5.0 minutes)”; the Kd is less than 10 nM. The IC50 in assay [2] is less than 10 nM.

For `CC(C)C[C@@H]1NC(=O)[C@H](Cc2cccc(C(F)(F)F)c2)NC(=O)[C@H](CC(=O)O)NC(=O)[C@H]2CCCN2C(=O)[C@H](CCC(=O)O)NC(=O)[C@@H](NC(=O)[C@H](Cc2ccc(O)cc2)NC(=O)[C@@H](NC(=O)CN2CCC(NC(=O)CN3CCN(CC(=O)O)CCN(CC(=O)O)CCN(CC(=O)O)CC3)CC2)C(C)C)CSCc2cccc(c2)CSC[C@@H](C(N)=O)NC(=O)[C@H](CO)NC(=O)[C@H](Cc2c[nH]c3ccccc23)NC(=O)[C@H]([C@@H](C)O)NC1=O` [3BP-4135] ({DOTA}-[X2]VYCE[dP]D[Phe(3-CF3)]LTWSC-NH2; linker 4-13 via mXylylene), in assay [1], the “t1/2 category (activity)” value is “B (t1/2 between 5.1 and 15.0 minutes)”; the Kd is less than 10 nM. The IC50 in assay [2] was less than 10 nM.

For the compound `CC(C)C[C@@H]1NC(=O)[C@H](Cc2ccc(C(F)(F)F)cc2)NC(=O)[C@H](CC(=O)O)NC(=O)[C@H]2CCCN2C(=O)[C@H](CCC(=O)O)NC(=O)[C@@H](NC(=O)[C@H](Cc2ccc(O)cc2)NC(=O)[C@@H](NC(=O)CN2CCC(NC(=O)CN3CCN(CC(=O)O)CCN(CC(=O)O)CCN(CC(=O)O)CC3)CC2)C(C)C)CSCc2cccc(c2)CSC[C@@H](C(N)=O)NC(=O)[C@H](CO)NC(=O)[C@H](Cc2c[nH]c3ccccc23)NC(=O)[C@H]([C@@H](C)O)NC1=O` [3BP-4139] ({DOTA}-[X2]VYCE[dP]D[Phe(4-CF3)]LTWSC-NH2; linker 4-13 via mXylylene), in assay [1], the “t1/2 category (activity)” value was “C (t1/2 between 2.1 and 5.0 minutes)”; the Kd is less than 10 nM. Moreover, in assay [2], the IC50 was less than 10 nM.

Turning to `CC(C)[C@H](NC(=O)CN1CCC(NC(=O)CN2CCN(CC(=O)O)CCN(CC(=O)O)CCN(CC(=O)O)CC2)CC1)C(=O)N[C@@H](Cc1ccc(O)cc1)C(=O)N[C@H]1CSCc2cccc(c2)CSC[C@@H](C(N)=O)NC(=O)[C@H](CO)NC(=O)[C@H](Cc2c[nH]c3ccccc23)NC(=O)[C@H]([C@@H](C)O)NC(=O)[C@H](CC2CCCCC2)NC(=O)[C@H](Cc2c[nH]c3ccccc23)NC(=O)[C@H](CC(=O)O)NC(=O)[C@H]2CCCN2C(=O)[C@H](CCC(=O)O)NC1=O` [3BP-4143] ({DOTA}-[X2]VYCE[dP]DW[Cha]TWSC-NH2; linker 4-13 via mXylylene), in assay [1], the “t1/2 category (activity)” value was “C (t1/2 between 2.1 and 5.0 minutes)”; the Kd was less than 10 nM. Moreover, the IC50 in assay [2] was less than 10 nM.

In the case of `CC(C)C[C@@H]1NC(=O)C(Cc2cn(C)c3ccccc23)NC(=O)[C@H](CC(=O)O)NC(=O)[C@H]2CCCN2C(=O)[C@H](CCC(=O)O)NC(=O)[C@@H](NC(=O)[C@H](Cc2ccc(O)cc2)NC(=O)[C@@H](NC(=O)CN2CCC(NC(=O)CN3CCN(CC(=O)O)CCN(CC(=O)O)CCN(CC(=O)O)CC3)CC2)C(C)C)CSCc2cccc(c2)CSC[C@@H](C(N)=O)NC(=O)[C@H](CO)NC(=O)[C@H](Cc2c[nH]c3ccccc23)NC(=O)[C@H]([C@@H](C)O)NC1=O` (stereo partly drawn) [3BP-4144] ({DOTA}-[X2]VYCE[dP]D[ξTrp(1-Me)]LTWSC-NH2; linker 4-13 via mXylylene), in assay [1], the “t1/2 category (activity)” value is “B (t1/2 between 5.1 and 15.0 minutes)”; the Kd is less than 10 nM. Moreover, the IC50 in assay [2] was less than 10 nM.

In the case of `Cc1cccc2c(CC3NC(=O)[C@H](CC(=O)O)NC(=O)[C@H]4CCCN4C(=O)[C@H](CCC(=O)O)NC(=O)[C@@H](NC(=O)[C@H](Cc4ccc(O)cc4)NC(=O)[C@@H](NC(=O)CN4CCC(NC(=O)CN5CCN(CC(=O)O)CCN(CC(=O)O)CCN(CC(=O)O)CC5)CC4)C(C)C)CSCc4cccc(c4)CSC[C@@H](C(N)=O)NC(=O)[C@H](CO)NC(=O)[C@H](Cc4c[nH]c5ccccc45)NC(=O)[C@H]([C@@H](C)O)NC(=O)[C@H](CC(C)C)NC3=O)c[nH]c12` (stereo partly drawn) [3BP-4158] ({DOTA}-[X2]VYCE[dP]D[ξTrp(7-Me)]LTWSC-NH2; linker 4-13 via mXylylene), in assay [1], the “t1/2 category (activity)” value is “B (t1/2 between 5.1 and 15.0 minutes)”; the Kd is less than 10 nM. Also, the IC50 in assay [2] was less than 10 nM.

For `CC(C)C[C@@H]1NC(=O)[C@H](Cc2c[nH]c3ccccc23)NC(=O)[C@H](CC(=O)O)NC(=O)[C@H]2CCCN2C(=O)[C@H](CCC(=O)O)NC(=O)[C@@H]2CSCc3cccc(c3)CSC[C@@H](C(N)=O)NC(=O)[C@H](CNC(=O)CC[C@H](NC(=O)[C@@H](NC(=O)CN3CCC(NC(=O)CN4CCN(CC(=O)O)CCN(CC(=O)O)CCN(CC(=O)O)CC4)CC3)C(C)C)C(=O)N2)NC(=O)[C@H](Cc2c[nH]c3ccccc23)NC(=O)[C@H]([C@@H](C)O)NC1=O` [3BP-4175] ({DOTA}-[X2]VECE[dP]DWLTW[Dap]C-NH2; lactam 3-12; linker 4-13 via mXylylene), in assay [1], the “t1/2 category (activity)” value is reported as “A (t1/2>15.0 minutes)” and the Kd is less than 10 nM. The IC50 in assay [2] was less than 10 nM.

For the compound `CC(C)C[C@@H]1NC(=O)[C@H](Cc2c[nH]c3ccccc23)NC(=O)[C@H](CC(=O)O)NC(=O)[C@H]2CCCN2C(=O)[C@H](CCC(=O)O)NC(=O)[C@@H]2CSCc3cccc(c3)CSC[C@@H](C(N)=O)NC(=O)[C@H](CC(=O)NC[C@H](NC(=O)[C@@H](NC(=O)CN3CCC(NC(=O)CN4CCN(CC(=O)O)CCN(CC(=O)O)CCN(CC(=O)O)CC4)CC3)C(C)C)C(=O)N2)NC(=O)[C@H](Cc2c[nH]c3ccccc23)NC(=O)[C@H]([C@@H](C)O)NC1=O` [3BP-4176] ({DOTA}-[X2]V[Dap]CE[dP]DWLTWDC-NH2; lactam 3-12; linker 4-13 via mXylylene), in assay [1], the “t1/2 category (activity)” value is “C (t1/2 between 2.1 and 5.0 minutes)”; the Kd is less than 10 nM. The IC50 in assay [2] is less than 10 nM.

Consider `CC(C)CC(=O)Nc1cccc(C[C@@H]2NC(=O)[C@H](CC(=O)O)NC(=O)[C@H]3CCCN3C(=O)[C@H](CCC(=O)O)NC(=O)[C@@H](NC(=O)[C@H](Cc3ccc(O)cc3)NC(=O)[C@@H](NC(=O)CN3CCC(NC(=O)CN4CCN(CC(=O)O)CCN(CC(=O)O)CCN(CC(=O)O)CC4)CC3)C(C)C)CSCc3cccc(c3)CSC[C@@H](C(N)=O)NC(=O)[C@H](CO)NC(=O)[C@H](Cc3c[nH]c4ccccc34)NC(=O)[C@H]([C@@H](C)O)NC(=O)[C@H](CC(C)C)NC2=O)c1` [3BP-4236] ({DOTA}-[X2]VYCE[dP]D[X22]LTWSC-NH2; linker 4-13 via mXylylene), for which, in assay [1], the “t1/2 category (activity)” value was “B (t1/2 between 5.1 and 15.0 minutes)”; the Kd was less than 10 nM. In assay [2], the IC50 was less than 10 nM.

On to `CC(C)C[C@@H]1NC(=O)[C@H](Cc2c[nH]c3ccccc23)NC(=O)[C@H](CC(=O)O)NC(=O)[C@H]2CCCN2C(=O)[C@H](CCC(=O)O)NC(=O)[C@@H]2CSCc3cccc(c3)CSC[C@@H](C(N)=O)NC(=O)[C@H](CNC(=O)C[C@H](NC(=O)CN3CCC(NC(=O)CN4CCN(CC(=O)O)CCN(CC(=O)O)CCN(CC(=O)O)CC4)CC3)C(=O)N2)NC(=O)[C@H](Cc2c[nH]c3ccccc23)NC(=O)[C@H]([C@@H](C)O)NC1=O` [3BP-4254] ({DOTA}-[X2]DCE[dP]DWLTW[Dap]C-NH2; lactam 2-11; linker 3-12 via mXylylene), for which, in assay [1], the “t1/2 category (activity)” value is “C (t1/2 between 2.1 and 5.0 minutes)”; the Kd is less than 10 nM. For the same compound, the IC50 in assay [2] is less than 10 nM.

Take `CC(C)C[C@@H]1NC(=O)[C@H](Cc2c[nH]c3ccccc23)NC(=O)[C@H](CC(=O)O)NC(=O)[C@H]2CCCN2C(=O)[C@H](CCC(=O)O)NC(=O)[C@@H]2CSCc3cccc(c3)CSC[C@@H](C(N)=O)NC(=O)[C@H](CNC(=O)C[C@H](NC(=O)C3CCN(C(=O)CN4CCN(CC(=O)O)CCN(CC(=O)O)CCN(CC(=O)O)CC4)CC3)C(=O)N2)NC(=O)[C@H](Cc2c[nH]c3ccccc23)NC(=O)[C@H]([C@@H](C)O)NC1=O` [3BP-4256] ({DOTA-Inp}-DCE[dP]DWLTW[Dap]C-NH2; lactam 1-10; linker 2-11 via mXylylene): in assay [1], the “t1/2 category (activity)” value was “C (t1/2 between 2.1 and 5.0 minutes)”; the Kd is less than 10 nM. Besides, the IC50 in assay [2] is less than 10 nM.

(Values after patent publication US20250339569A1, “CARBONIC ANHYDRASE IX LIGANDS” (priority 2021, published 2025).)
